Test results as given in patent US20080194546A1, “Pyrido-, Pyrazo- and Pyrimido-Pyrimidine Derivatives as mTOR Inhibitors” (KuDOS Pharmaceuticals Limited, priority 2005, published 2008).
Read-outs that look alike come from different tables or passages of the source.

Columns and labels:
T47D cells = assay: Cell Proliferation Assay (GI50), sulforhodamine B (SRB) assay; type: cell-based; conditions: Homo sapiens, 120 hours, SRB
Method: Cell growth was assessed using the sulforhodamine B (SRB) assay (A). T47D (ECACC, 85102201) cells were routinely passaged in RPMI (Invitrogen, 42401018) plus 10% foetal calf serum (FCS), 1% L-glutamine (Gibco BRL, 25030) to a confluence not greater than 80%. To undertake the assay, T47D cells were seeded at 2.5×10^3 cells/well in […] RPMI plus 10% foetal calf serum, 1% L-glutamine in 96 well plates (Costar, 3904) and incubated at 37° C. (+5% CO2) in a humidified incubator. Once the cells had fully adhered (typically following 4-5 hours incubation) the plate was removed from the incubator and 10 μL of the diluent added to the control wells (A1-12 and B1-12). Compound was prepared in a six point semi-log dilution at 10× the final concentration required e.g. for a 6 point range of 30 μM to 100 nM in semi-log steps dilution started at 300 μM in stock plate. Dosing was completed by addition of 10 μL of compound at highest concentration to C1-12 through to the lowest concentration in H1-12. The plates were then incubated for 120 hours prior to SRB analysis.
Upon completion of incubation, media was removed and the cells fixed with […] of ice cold 10% (w/v) trichloroacetic acid. The plates were incubated at 4° C. for 20 minutes and then washed four times with water. Each well of cells was then stained with 100 μl of 0.4% (w/v) SRB (Sulforhodamine B, Sigma, Poole, Dorset, UK, Catalogue number S-9012) in 1% acetic acid for 20 minutes before washing four times with 1% acetic acid. Plates were then dried for 2 hours at room temperature. The dye from the stained cells was solubilized by the addition of 100 μl of 10 mM Tris Base into each well. Plates were gently shaken and left at room temperature for 30 minutes before measuring the optical density at 564 nm on a Microquant microtiter plate reader. The concentration of inhibitor eliciting a 50% reduction in growth (GI50) was determined by analysis of staining intensity of the treated cells as a percentage of the vehicle control wells using Excelfit software.
(A) Skehan, P., Storung, R., Scudiero, R., Monks, A., McMahon, J., Vistica, D., Warren, J. T., Bokesch, H., Kenny, S. and Boyd, M. R. (1990) New […] cytotoxicity assay for anticancer-drug screening. J. Natl. Cancer Inst. 82, 1107-1112.

[1] = biological target: recombinant mTOR (FLAG-tagged, amino acid residues 1362 to 2549) (Homo sapiens, UniProt P42345); assay: Alternative Enzyme Assay: AlphaScreen, inhibition of phosphorylation by recombinant mTOR; type: biochemical; conditions: Alternative Enzyme Assay, single values; read-out: IC50
[2] = tested on: phosphorylation of Serine 473 in Akt in MDA-MB-468 cells; assay: In Vitro phospho-Ser473 Akt Assay (Acumen Explorer); type: cell-based; conditions: Homo sapiens
mTOR = biological target: T1, mTOR (Homo sapiens, UniProt P42345); assay: Biological Assay: mTOR enzyme activity, mTOR immunoprecipitated from HeLa cell cytoplasmic extract, recombinant PHAS-1 as substrate; type: biochemical; conditions: Biological Assay
T1 construct: mTOR protein was isolated from HeLa cell cytoplasmic extract by immunoprecipitation; endogenous in cells; host or cells: HeLa cell cytoplasmic extract (immunoprecipitate)
From the text: For mTOR enzyme activity assays, mTOR protein was isolated from HeLa cell cytoplasmic extract by immunoprecipitation, and activity determined essentially as described previously using recombinant PHAS-1 as a substrate (ref. 21).

[3] = upper bounds, read-out: IC50 values against mTOR

| Structure (SMILES) | GI50 (T47D cells; single values) [nM] | GI50 (T47D cells) [nM] | IC50 (mTOR; [3]) [nM] | further results |
| --- | --- | --- | --- | --- |
| C[C@@H]1CN(c2nc(N3CCOCC3)c3ccc(-c4ccsc4)nc3n2)C[C@H](C)O1 [Comparative Example 1k, reference compound] | 268 |  |  | IC50 [1]: 225 nM; IC50 ([2]; MDA-MB-468 cells, single values, read-out: IC50 (phospho-Ser473 Akt assay)): 412 nM; IC50 (mTOR; single values, read-out: IC50): 33 nM |
| COc1ccc(-c2ccc3c(N4CCOCC4)nc(N4C[C@@H](C)O[C@@H](C)C4)nc3n2)cc1CNC1CCCCC1C (some centres unmarked) [Example 8w] |  | < 1000 | < 1000 |  |
| C#CC1(NCc2cc(-c3ccc4c(N5CCOCC5)nc(N5C[C@@H](C)O[C@@H](C)C5)nc4n3)ccc2OC)CCCCC1 [Example 8x] |  | < 1000 | < 1000 |  |
| COc1ccc(-c2ccc3c(N4CCOCC4)nc(N4C[C@@H](C)O[C@@H](C)C4)nc3n2)cc1CNC(Cc1ccc([N+](=O)[O-])cc1)C(=O)O (some centres unmarked) [Example 8y] |  | < 1000 | < 1000 |  |
| COc1ccc(-c2ccc3c(N4CCOCC4)nc(N4C[C@@H](C)O[C@@H](C)C4)nc3n2)cc1CNCc1cccc(OC)c1OC [Example 8z] |  | < 1000 | < 10000 |  |
| C[C@@H]1CN(c2nc(N3CCOC[C@@H]3C)c3ccc(-c4ccsc4)nc3n2)C[C@H](C)O1 [Example 11k] | 32 |  |  | IC50 ([2]; MDA-MB-468, read-out: IC50 (phospho-Ser473 Akt assay)): 83 nM |
